These results are taken from patent publication US11419869B2, “Dosage forms and regimens for amino acid compounds” (Pliant Therapeutics, Inc., priority 2019, dated 2022).

Structures are written as SMILES.

What is called IC50 is the point on the concentration scale where inhibition reaches its midpoint.

For this experiment, the target named is recombinant human integrin αvβ6 (Homo sapiens (Human), UniProt P06756+P18564). In words: Solid Phase Integrin αvβ6 Binding Assay (Examples B1, B2). The note with it: TGFβ1 LAP ligand, values given in four ranges, read-out: αvβ6 Inhibition IC50 (nM)-range. Here is the method: (§1) Microplates were coated with recombinant human integrin αvβ6 (2 μg/mL) in PBS (100 μL/well 25° C., overnight). The coating solution was removed, washed with wash buffer (0.05% Tween 20; 0.5 mM MnCl2; in 1×TBS). The plate was blocked with 200 μL/well of Block Buffer (1% BSA; 5% sucrose; 0.5 mM MnCl2; in 1×TBS) at 37° C. for 2 h. Dilutions of testing compounds and recombinant TGFβ1 LAP (0.67 μg/mL) in binding buffer (0.05% BSA; 2.5% sucrose; 0.5 mM MnCl2; in 1×TBS) were added. The plate was incubated for 2 hours at 25° C., washed, and incubated for 1 hour with Biotin-Anti-hLAP. Bound antibody was detected by peroxidase-conjugated streptavidin. The IC50 values for testing compounds were calculated by four-parameter logistic regression.
Chain of recombinant human integrin αvβ6 (P06756 31-992): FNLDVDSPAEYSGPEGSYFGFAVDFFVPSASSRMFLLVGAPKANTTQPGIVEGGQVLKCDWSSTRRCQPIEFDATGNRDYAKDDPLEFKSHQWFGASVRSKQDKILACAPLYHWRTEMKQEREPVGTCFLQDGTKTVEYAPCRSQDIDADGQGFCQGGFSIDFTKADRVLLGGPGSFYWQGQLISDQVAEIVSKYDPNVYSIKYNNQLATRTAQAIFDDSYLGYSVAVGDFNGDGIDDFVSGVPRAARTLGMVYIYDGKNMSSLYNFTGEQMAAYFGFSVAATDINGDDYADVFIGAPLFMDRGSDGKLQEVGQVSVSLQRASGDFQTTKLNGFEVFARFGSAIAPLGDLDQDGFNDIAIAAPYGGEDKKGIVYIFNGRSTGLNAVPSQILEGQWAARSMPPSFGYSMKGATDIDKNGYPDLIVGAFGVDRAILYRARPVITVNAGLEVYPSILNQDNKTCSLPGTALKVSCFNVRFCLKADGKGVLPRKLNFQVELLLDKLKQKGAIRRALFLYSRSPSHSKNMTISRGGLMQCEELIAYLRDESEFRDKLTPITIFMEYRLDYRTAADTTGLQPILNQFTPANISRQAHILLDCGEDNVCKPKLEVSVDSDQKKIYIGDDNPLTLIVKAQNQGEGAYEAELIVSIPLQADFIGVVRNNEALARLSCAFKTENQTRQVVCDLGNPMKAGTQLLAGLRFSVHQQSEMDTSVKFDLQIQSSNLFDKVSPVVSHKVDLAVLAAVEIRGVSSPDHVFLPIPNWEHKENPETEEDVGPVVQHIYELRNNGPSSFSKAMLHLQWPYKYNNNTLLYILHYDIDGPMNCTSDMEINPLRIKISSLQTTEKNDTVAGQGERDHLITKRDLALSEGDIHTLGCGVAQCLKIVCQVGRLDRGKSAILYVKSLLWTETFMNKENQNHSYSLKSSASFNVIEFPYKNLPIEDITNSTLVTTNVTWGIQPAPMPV
Chain of recombinant human integrin αvβ6 (P18564 22-707): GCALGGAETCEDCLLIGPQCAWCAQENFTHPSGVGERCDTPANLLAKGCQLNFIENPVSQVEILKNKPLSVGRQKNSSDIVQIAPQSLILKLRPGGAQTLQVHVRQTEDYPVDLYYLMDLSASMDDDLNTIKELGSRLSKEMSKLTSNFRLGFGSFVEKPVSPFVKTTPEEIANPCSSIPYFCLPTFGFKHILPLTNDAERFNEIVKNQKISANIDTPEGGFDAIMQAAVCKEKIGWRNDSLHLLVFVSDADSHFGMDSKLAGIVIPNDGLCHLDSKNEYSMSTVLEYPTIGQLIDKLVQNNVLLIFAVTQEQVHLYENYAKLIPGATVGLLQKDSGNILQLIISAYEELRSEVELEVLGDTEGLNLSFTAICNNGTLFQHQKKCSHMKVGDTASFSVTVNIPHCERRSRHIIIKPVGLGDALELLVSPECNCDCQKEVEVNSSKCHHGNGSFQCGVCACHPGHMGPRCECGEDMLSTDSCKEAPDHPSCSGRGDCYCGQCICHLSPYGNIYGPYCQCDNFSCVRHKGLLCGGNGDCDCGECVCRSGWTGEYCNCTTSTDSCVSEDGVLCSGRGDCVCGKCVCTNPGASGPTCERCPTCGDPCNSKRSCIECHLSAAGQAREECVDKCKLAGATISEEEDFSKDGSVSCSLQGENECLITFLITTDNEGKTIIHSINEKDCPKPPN
The compounds tested were compound samples prepared according to procedures described in the Synthetic Examples section, with the stereochemical purity as indicated in the Examples.
as §1, with “A third series of exemplary compounds was selected for testing in the solid phase integrin αvβ6 binding assay. The compounds tested were compound samples prepared according to procedures described in the Synthetic Examples section, with the stereochemical purity as indicated in the Examples. As in Example B1, microplates were coated” for “Microplates were coated”, “calculated by a four-parameter logistic” for “calculated by four-parameter logistic”
Consider `Cc1nc(N[C@@H](CCN(CCCCc2ccc3c(n2)NCCC3)CC2CC(F)(F)C2)C(=O)O)c2ccc(F)cc2n1` [Compound 33, (S)-4-(((3,3-difluorocyclobutyl)methyl) (4-(5,6,7,8-tetrahydro-1,8-naphthyridin-2-yl)butyl)amino)-2-((7-fluoro-2-methylquinazolin-4-yl)amino) butanoic acid], for which the 50% inhibitory concentration (IC50) is under 50 nM.
In the case of `CO[C@H](C)CN(CCCCc1ccc2c(n1)NCCC2)CC[C@H](Nc1ccnc(-c2ccccc2)n1)C(=O)O` [Compound 73, (S)-4-(((R)-2-methoxypropyl) (4-(5,6,7,8-tetrahydro-1,8-naphthyridin-2-yl)butyl)amino)-2-((2-phenylpyrimidin-4-yl)amino) butanoic acid] it was under 50 nM.
Turning to `CS(=O)(=O)CCN(CCCCc1ccc2c(n1)NCCC2)CC[C@H](Nc1ncc(C(F)(F)F)cn1)C(=O)O` [Compound 102, (S)-4-((2-(methylsulfonyl)ethyl) (4-(5,6,7,8-tetrahydro-1,8-naphthyridin-2-yl)butyl)amino)-2-((5-(trifluoromethyl)pyrimidin-2-yl)amino) butanoic acid], the IC50 was over 1000 nM.
`Cc1ccc(OCCN(CCCCc2ccc3c(n2)NCCC3)CC[C@H](Nc2ncnc3cccnc23)C(=O)O)cn1` [Compound 57, (S)-4-((2-((6-methylpyridin-3-yl)oxy)ethyl) (4-(5,6,7,8-tetrahydro-1,8-naphthyridin-2-yl)butyl)amino)-2-(pyrido[3,2-d]pyrimidin-4-ylamino) butanoic acid]: the IC50 is under 50 nM.
In the case of `CO[C@H](C)CN(CCCCc1ccc2c(n1)NCCC2)CC[C@H](Nc1nc(C)nc2cc(F)ccc12)C(=O)O` [Compound 65, (S)-2-((7-fluoro-2-methylquinazolin-4-yl)amino)-4-(((R)-2-methoxypropyl) (4-(5,6,7,8-tetrahydro-1,8-naphthyridin-2-yl)butyl)amino) butanoic acid] it was under 50 nM.
In the case of `CO[C@H](C)CN(CCCCc1ccc2c(n1)NCCC2)CC[C@H](Nc1ncc(F)cn1)C(=O)O` [Compound 78, (S)-2-((5-fluoropyrimidin-2-yl)amino)-4-(((R)-2-methoxypropyl) (4-(5,6,7,8-tetrahydro-1,8-naphthyridin-2-yl)butyl)amino) butanoic acid], the IC50 is under 50 nM.
With `CO[C@H](C)CN(CCCCc1ccc2c(n1)NCCC2)CC[C@H](Nc1ncc(Br)cn1)C(=O)O` [Compound 70, (S)-2-((5-bromopyrimidin-2-yl)amino)-4-(((R)-2-methoxypropyl) (4-(5,6,7,8-tetrahydro-1,8-naphthyridin-2-yl)butyl)amino) butanoic acid], the concentration for half-maximal inhibition (IC50) was under 50 nM.
With `CO[C@H](C)CN(CCCCc1ccc2c(n1)NCCC2)CC[C@H](Nc1nccnc1C#N)C(=O)O` [Compound 76, (S)-2-((3-cyanopyrazin-2-yl)amino)-4-(((R)-2-methoxypropyl) (4-(5,6,7,8-tetrahydro-1,8-naphthyridin-2-yl)butyl)amino) butanoic acid], the IC50 was under 50 nM.
Under `O=C(O)[C@H](CCN(CCCCc1ccc2c(n1)NCCC2)CCOc1ccccc1)Nc1ncc(Br)cn1` [Compound 83, (S)-2-((5-bromopyrimidin-2-yl)amino)-4-((2-phenoxyethyl) (4-(5,6,7,8-tetrahydro-1,8-naphthyridin-2-yl)butyl)amino) butanoic acid] stands under 50 nM.
`COC[C@@H](F)CN(CCCCc1ccc2c(n1)NCCC2)CC[C@H](Nc1ncncc1-c1ccccc1)C(=O)O` [Compound 110, (S)-4-(((S)-2-fluoro-3-methoxypropyl) (4-(5,6,7,8-tetrahydro-1,8-naphthyridin-2-yl)butyl)amino)-2-((5-phenylpyrimidin-4-yl)amino) butanoic acid]: the IC50 is under 50 nM.
In the case of `Cc1ccc(OCCN(CCCCc2ccc3c(n2)NCCC3)CC[C@H](Nc2ncnc3ccccc23)C(=O)O)cn1` [Compound 59, (S)-4-((2-((6-methylpyridin-3-yl)oxy)ethyl) (4-(5,6,7,8-tetrahydro-1,8-naphthyridin-2-yl)butyl)amino)-2-(quinazolin-4-ylamino) butanoic acid] it was under 50 nM; in that of `CCOCCN(CCCCc1ccc2c(n1)NCCC2)CC[C@H](Nc1ncnc2ccccc12)C(=O)O` [Compound 55, (S)-4-((2-ethoxyethyl) (4-(5,6,7,8-tetrahydro-1,8-naphthyridin-2-yl)butyl)amino)-2-(quinazolin-4-ylamino) butanoic acid], under 50 nM.
For the compound `O=C(O)[C@H](CCN(CCCCc1ccc2c(n1)NCCC2)CC(F)F)Nc1ncc(Br)cn1` [Compound 96, (S)-2-((5-bromopyrimidin-2-yl)amino)-4-((2,2-difluoroethyl) (4-(5,6,7,8-tetrahydro-1,8-naphthyridin-2-yl)butyl)amino) butanoic acid], the IC50 is over 1000 nM.
Take `CO[C@H](C)CN(CCCCc1ccc2c(n1)NCCC2)CC[C@H](Nc1ncc(C(F)(F)F)cn1)C(=O)O` [Compound 69, (S)-4-(((R)-2-methoxypropyl) (4-(5,6,7,8-tetrahydro-1,8-naphthyridin-2-yl)butyl)amino)-2-((5-(trifluoromethyl)pyrimidin-2-yl)amino) butanoic acid]: the half-maximal inhibitory concentration (IC50) was under 50 nM.
Under `Cn1ncc2c(N[C@@H](CCN(CCCCc3ccc4c(n3)NCCC4)CCOc3ccccc3)C(=O)O)ncnc21` [Compound 82, (S)-2-((1-methyl-1H-pyrazolo[3,4-d]pyrimidin-4-yl)amino)-4-((2-phenoxyethyl) (4-(5,6,7,8-tetrahydro-1,8-naphthyridin-2-yl)butyl)amino) butanoic acid] stands under 50 nM; under `CO[C@H](C)CN(CCCCc1ccc2c(n1)NCCC2)CC[C@H](Nc1ncnc2cn[nH]c12)C(=O)O` [Compound 79, (S)-2-((1H-pyrazolo[4,3-d]pyrimidin-7-yl)amino)-4-(((R)-2-methoxypropyl) (4-(5,6,7,8-tetrahydro-1,8-naphthyridin-2-yl)butyl)amino) butanoic acid], under 50 nM; under `CO[C@H](C)CN(CCCCc1ccc2c(n1)NCCC2)CC[C@H](Nc1cc(-n2cccn2)ncn1)C(=O)O` [Compound 77, (S)-2-((6-(1H-pyrazol-1-yl)pyrimidin-4-yl)amino)-4-(((R)-2-methoxypropyl) (4-(5,6,7,8-tetrahydro-1,8-naphthyridin-2-yl)butyl)amino) butanoic acid], under 50 nM.
For the compound `CO[C@H](C)CN(CCCCc1ccc2c(n1)NCCC2)CC[C@H](Nc1nc(-c2cccnc2)nc2ccccc12)C(=O)O` [Compound 100, (S)-4-(((R)-2-methoxypropyl) (4-(5,6,7,8-tetrahydro-1,8-naphthyridin-2-yl)butyl)amino)-2-((2-(pyridin-3-yl)quinazolin-4-yl)amino) butanoic acid], the IC50 was under 50 nM.
In the case of `O=C(O)[C@H](CCN(CCCCc1ccc2c(n1)NCCC2)CCOc1ccccc1)Nc1ncc(C2CC2)cn1` [Compound 117, (S)-2-((5-cyclopropylpyrimidin-2-yl)amino)-4-((2-phenoxyethyl) (4-(5,6,7,8-tetrahydro-1,8-naphthyridin-2-yl)butyl)amino) butanoic acid] it was under 50 nM; in that of `O=C(O)[C@H](CCN(CCCCc1ccc2c(n1)NCCC2)CC(CO)CO)Nc1ncnc2ccccc12` [Compound 130, (S)-4-((3-hydroxy-2-(hydroxymethyl)propyl) (4-(5,6,7,8-tetrahydro-1,8-naphthyridin-2-yl)butyl)amino)-2-(quinazolin-4-ylamino) butanoic acid], under 50 nM; in that of `CC(=O)NCCN(CCCCc1ccc2c(n1)NCCC2)CC[C@H](Nc1ncnc2ccccc12)C(=O)O` [Compound 63, (S)-4-((2-acetamidoethyl) (4-(5,6,7,8-tetrahydro-1,8-naphthyridin-2-yl)butyl)amino)-2-(quinazolin-4-ylamino) butanoic acid], under 50 nM.
In the case of `Cc1nc(N[C@@H](CCN(CCCCc2ccc3c(n2)NCCC3)CCOc2cccnc2C)C(=O)O)c2ccc(F)cc2n1` [Compound 53, (S)-2-((7-fluoro-2-methylquinazolin-4-yl)amino)-4-((2-((2-methylpyridin-3-yl)oxy)ethyl) (4-(5,6,7,8-tetrahydro-1,8-naphthyridin-2-yl)butyl)amino) butanoic acid] it was under 50 nM; in that of `COc1cccc2c(N[C@@H](CCN(CCCF)CCCCc3ccc4c(n3)NCCC4)C(=O)O)ncnc12` [Compound 43, (S)-4-((3-fluoropropyl) (4-(5,6,7,8-tetrahydro-1,8-naphthyridin-2-yl)butyl)amino)-2-((8-methoxyquinazolin-4-yl)amino) butanoic acid], under 50 nM.
